Laboratory results published in patent US12077503B2, “Substituted cyclic amides and their use as herbicides” (FMC CORPORATION, priority 2015, dated 2024).

Assays:
Test in all cases: Test C flooded paddy test
Type in all cases: in vivo
rice (Oryza sativa) = details: Flood; for Plant response rating (scale of 0 to 100), Rice: 0 is no effect, 100 is complete control
Procedure, shortened: (§1)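 Rice, small-flower umbrella sedge, ducksalad and barnyardgrass at the 2-leaf stage were flooded to 3 cm, and compound was applied into the paddy water. After 13 to 15 d in a greenhouse, plants were rated visually against controls on a 0 (no effect) to 100 (complete control) scale.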

[1] = system: ducksalad (Heteranthera limosa); details: Flood; for Plant response rating (scale of 0 to 100), Ducksalad: 0 is no effect, 100 is complete control
Procedure, shortened: as §1

[2] = system: barnyardgrass (Echinochloa crus-galli); details: Flood; for Plant response rating (scale of 0 to 100), Barnyardgrass: 0 is no effect, 100 is complete control
Procedure, shortened: as §1

[3] = 31 g ai/ha, scale 0 to 100 (0 no effect, 100 complete control), 13 to 15 d

Which “Plant response rating, Rice” value (rice (Oryza sativa); [3]) does the source give for `O=C1NCC(c2cccc(OC(F)(F)C(F)F)c2)C1C(=O)Nc1cccc(F)c1F` (racemic) [Compound 697] here?
Its value is 0.

What about the “Plant response rating (scale of 0 to 100), Rice” value (rice (Oryza sativa); 62 g ai/ha) of the same compound?
Its value is 0.

And the “Plant response rating (scale of 0 to 100), Rice” value (rice (Oryza sativa); 125 g ai/ha)?
Its value is 50.

What about the “Plant response rating (scale of 0 to 100), Rice” value (rice (Oryza sativa); 250 g ai/ha) of the same compound?
Its value is 70.

What about the “Plant response rating, Ducksalad” value [1, 3] of the same compound?
The value was 40.

What about the “Plant response rating (scale of 0 to 100), Ducksalad” value ([1]; 62 g ai/ha) of the same compound?
The value was 40.

What about the “Plant response rating (scale of 0 to 100), Ducksalad” value ([1]; 125 g ai/ha) of the same compound?
Its value is 60.

And the “Plant response rating (scale of 0 to 100), Ducksalad” value ([1]; 250 g ai/ha)?
Its value is 100.

What about the “Plant response rating, Barnyardgrass” value [2, 3] of the same compound?
The value was 0.

What about the “Plant response rating (scale of 0 to 100), Barnyardgrass” value ([2]; 62 g ai/ha) of the same compound?
Its value is 30.

And the “Plant response rating (scale of 0 to 100), Barnyardgrass” value ([2]; 125 g ai/ha)?
Its value is 45.

And the “Plant response rating (scale of 0 to 100), Barnyardgrass” value ([2]; 250 g ai/ha)?
Its value is 45.
